From the NIST ThermoML archive (doi:10.1021/je800070y)
Numbers after ± are expanded uncertainties.

Conditions: Liquid, Rate of evaporation

vapor or sublimation pressure (523.15 K) | vapor or sublimation pressure (548.15 K) | vapor or sublimation pressure (573.15 K) | vapor or sublimation pressure (598.15 K) | vapor or sublimation pressure (623.15 K) | vapor or sublimation pressure (463.15 K) | vapor or sublimation pressure (483.15 K) | vapor or sublimation pressure (503.15 K) | vapor or sublimation pressure (543.15 K) | SMILES
1.31 ± 0.1 kPa | 4.49 ± 0.35 kPa | 12.3 ± 1 kPa | 30 ± 2.3 kPa | 65 ± 5 kPa | – | – | – | – | OC[C@@H](O)[C@@H](O)[C@H](O)[C@@H](O)CO [D-sorbitol]
34.5 ± 2.7 kPa | – | – | – | – | 3.85 ± 0.3 kPa | 8.64 ± 0.67 kPa | 17.9 ± 1.4 kPa | 62.6 ± 4.8 kPa | OCC(O)CO [glycerol]
